Laboratory results taken from patent publication US20220364065A1, “COMPOSITION FOR REMOVING PLURIPOTENT STEM CELLS AND METHOD OF REMOVING PLURIPOTENT STEM CELLS” (NATIONAL UNIVERSITY CORPORATION HOKKAIDO UNIVERSITY, priority 2018, published 2022).
“Also recorded” adds a separate entry of the source.

Assays:
mouse ES cells [1] = test: Immunostaining of pluripotent stem cell markers (Sox2, Nanog, Oct4), ES cells; assay type: cell-based
Procedure: (§1) The cells were fixed and immunostained as described in Kondo et al., Genes Dev. […] For the culture of ES cells and iPS cells, gelatin-coated ones were used.
(§2) For immunostaining, the cells were first washed once with PBS, then fixed by adding 4% paraformaldehyde and incubating for 10 minutes at room temperature. The cells were replaced with PBS containing 0.3% Triton X100 and incubated for 5 minutes at room temperature, then replaced with PBS containing 0.3% Triton X100 and 10% FCS (blocking solution) and incubated for 30 minutes at room temperature. The solution was replaced with primary antibody solution diluted in blocking solution and incubated for 2 hours at room temperature. After washing three times with PBS, secondary antibody and DAPI solution diluted with blocking solution were added and incubated at room temperature for 2 hours. […] Note that the cell nuclei were visualized by contrast staining with DAPI solution (1 μg/mL, manufactured by Dojindo, product code: D523). In addition, fluorescence images were acquired with an Axiolmager M1 microscope (manufactured by Carl Zeiss).
(§3) LMB is a specific inhibitor of CRM1, also known as Exportin 1.

mouse iPS cells [2] = test: Immunostaining of pluripotent stem cell markers (Sox2, Nanog, Oct4), iPS cells; assay type: cell-based
Procedure: as §1, §2, §3

mouse iPS cells [3] = test: Teratoma formation from pretreated iPS cells in NOD/SCID mice; assay type: in vivo; details: iPS cells pretreated 2 days with 10 μM BRQ, subcutaneous in NOD/SCID mice, 4 weeks
Procedure: (§4) The viable cells (1×10^6) were suspended in 50 μl of Matrigel (manufactured by BD Biosciences) and injected subcutaneously into the buttocks of 5-8-week-old NOD/SCID mice anesthetized with 10% pentobarbital. Four weeks after the injection, the mice were sacrificed to death, and the tumors were removed and photographed for their size measurement according to the method described in Tsukamoto Y, et al., Stem Cells. 2016; 34(8): 2016-2025. Based on the measurement values obtained, the volume of the tumors was calculated by the following formula.
(§5) Volume of tumor (cm^3)=major diameterxminor diameterxminor diameter×½.
(§6) Then, 4 weeks after transplantation, the tumors were removed and observed.

[4] = test system: mouse neural stem cells (mNSC); test: MTT assay, viability of mouse neural stem cells; assay type: cell-based; details: 10 μM BRQ, 3 days
Procedure: (§7) One thousand cells were seeded into each well of a 96-well plate and cultured for 3 days in medium (200 μL/well) supplemented with only DMSO at a final concentration of 0.1% or in medium (200 μL/well) supplemented with each dihydroorotate dehydrogenase (DHODH) inhibitor. The medium used was the appropriate culture solution for each cell as described above.
(§8) The concentration of each DHODH inhibitor added to the medium was a 2-fold dilution series starting from 200 μM.
(§9) As a background, a well containing medium only was prepared, and as a control, a well was also prepared in which medium containing Triton X-100 (final concentration 0.2%) was added to the cells.
(§10) Then, 5 μL of MTT (5 mg/ml, manufactured by Wako) was added to each well, and the cells were incubated at 37° C. for 2 to 3 hours. Then, the medium was replaced with 100 μL of DMSO to lyse the cells, and the absorbance of these cell lysates at a wavelength of 570 nm was measured with a microplate reader (manufactured by Bio-Rad, Benchmark model). In addition, based on the obtained absorbance, the cell viability was calculated by the following formula.
(§11) Cell viability (%)=(absorbance in wells with DHODH inhibitor-absorbance in background)/(absorbance in control-absorbance in background)×100.

C2C12: mouse myoblasts = test: MTT assay, viability of C2C12 cells; assay type: cell-based; details: 10 μM BRQ, 3 days
Procedure: as §7, §8, §9, §10
Cell viability (%)=(absorbance in wells with DHODH inhibitor-absorbance in background)/(absorbance in control-absorbance in background)×100. […]

mouse ES cells [5] = test: Quantitative RT-PCR of Sox2, Oct4, Nanog, ES cells; assay type: cell-based; details: 10 μM BRQ, 2 days
Procedure: First, total RNA was prepared from cells using the RNeasy kit (manufactured by Qiagen), and cDNA was synthesized using the Transcriptor First Strand cDNA Synthesis Kit (manufactured by Roche Applied Science).
Then, the cDNA was used as a template, and Thunderbird Cyber qPCR Mix (manufactured by TOYOBO) and Step One Plus (manufactured by Thermo Fisher Scientific) were used to perform real-time PCR. The reaction conditions were set at 95° C. for 15 seconds and 60° C. for 30 seconds for 40 cycles, and the oligonucleotide primers shown below were used to amplify each target gene.
Note that the expression level of each target gene detected in this way was normalized by the relative quantification method (delta delta Ct method) based on the expression level of 18S ribosomal RNA.

mouse iPS cells [6] = test: Cell proliferation and cell death (BrdU uptake, Ki67, Casp3 immunostaining), iPS cells; assay type: cell-based; details: BRQ 2 days
Procedure: The cells were fixed and immunostained as described in Kondo et al., Genes Dev. 2004, Vol. 18, Issue 23, pp. 2963-72. […] For the culture of mNSCs, PDL+fibronectin-coated ones were used (see Johe KK et al., Genes Dev. 1996, Vol. 10, Issue 24, pp. 3129 to 3140). For the culture of ES cells and iPS cells, gelatin-coated ones were used.
For immunostaining, the cells were first washed once with PBS, then fixed by adding 4% paraformaldehyde and incubating for 10 minutes at room temperature. The cells were replaced with PBS containing 0.3% Triton X100 and incubated for 5 minutes at room temperature, then replaced with PBS containing 0.3% Triton X100 and 10% FCS (blocking solution) and incubated for 30 minutes at room temperature. The solution was replaced with primary antibody solution diluted in blocking solution and incubated for 2 hours at room temperature. After washing three times with PBS, secondary antibody and DAPI solution diluted with blocking solution were added and incubated at room temperature for 2 hours. After washing three times with PBS, the cells were sealed with anti-fading agent (manufactured by DAKO, code number: 53023) and observed under a microscope. […] In addition, fluorescence images were acquired with an Axiolmager M1 microscope (manufactured by Carl Zeiss). […]

mouse ES cells [7] = test: Teratoma formation from pretreated ES cells in NOD/SCID mice; assay type: in vivo; details: ES cells pretreated 2 days with 10 μM BRQ, subcutaneous in NOD/SCID mice, 4 weeks
Procedure: as §4, §5, §6

mouse iPS cells [8] = test: MTT assay, viability of mouse iPS cells; assay type: cell-based; details: 3 days
Procedure: as §7, §8, §9, §10, §11

[9] = ES cells, 2 days, BRQ 10 μM (ZVAD 100 nM where added)
[10] = mouse ES cells, 10 μM BRQ, 24 hours
[11] = iPS cells, 2 days, BRQ 10 μM (ZVAD 100 nM where added)
[12] = mouse iPS cells, 10 μM BRQ, 24 hours

## Cc1c(-c2ccc(-c3ccccc3F)cc2)nc2ccc(F)cc2c1C(=O)O [BRQ, 6-fluoro-2-(2′-fluoro-1,1′-biphenyl-4-yl)-3-methyl-4-quinoline-sodium carboxylate]
Mouse ES cells [1]; [9]
  Nanog-positive cells: 6%
  Oct4-positive cells: 2%
Mouse ES cells [1]; [10]
  cells in which expression of Sox2 was not observed: about 30%
  inhibition of cell proliferation or cell death: inhibition of cell proliferation or cell death was already observed
Mouse ES cells [1]; mouse ES cells, 10 μM BRQ, 2 days
  subcellular localization of Nanog: distributed in the cytoplasm
Mouse iPS cells [2]; [11]
  Nanog-positive cells: 0%
  Oct4-positive cells: 0%
Mouse iPS cells [2]; [12]
  cells in which expression of Sox2 was not observed: about 30%
  inhibition of cell proliferation or cell death: inhibition of cell proliferation or cell death was already observed
Mouse iPS cells [2]; mouse iPS cells, 10 μM BRQ, 2 days
  subcellular localization of Nanog: distributed in the cytoplasm
Mouse iPS cells [3]
  tumor formation from pretreated cells: did not proliferate
[4]
  cytotoxic activity / sensitivity (viability, MTT assay): hyposensitive; also recorded: no significant cytotoxic activity
C2C12: mouse myoblasts
  cytotoxic activity (viability, MTT assay): no significant cytotoxic activity
Mouse ES cells [5]
  expression levels of marker genes (Sox2, Oct4, Nanog): generally decreased
Mouse iPS cells [6]
  CASP3 activation (Casp3 immunostaining): strongly activated
  cell proliferation (BrdU uptake assay): reduced the proliferation
Mouse ES cells [7]
  tumor formation from pretreated cells: did not proliferate
Mouse iPS cells [8]; 10 μM BRQ
  cytotoxic activity (viability, MTT assay): significant cytotoxic activity
Mouse iPS cells [8]; 2-fold dilution series starting from 200 μM
  cytotoxic activity (viability, MTT assay): significant cytotoxic activity
